Activity calls are given as the source filed them. The rule behind the calls is not given here.

In the data set the test system is CCRIS mutagenicity, Ames/micronucleus/aberration tests. As to the kind of experiment: CCRIS mutagenicity studies.
[1] abbreviates: Test System: AMES SALMONELLA TYPHIMURIUM, Strain/Indicator: TA97, Metabolic Activation: NONE, Method: PREINCUBATION
The mark [2] stands for this setting: Test System: AMES SALMONELLA TYPHIMURIUM, Strain/Indicator: TA97, Metabolic Activation: RAT, LIVER, S-9, AROCLOR 1254 (10%), Method: PREINCUBATION
[3] abbreviates: Test System: AMES SALMONELLA TYPHIMURIUM, Strain/Indicator: TA98, Metabolic Activation: NONE, Method: PREINCUBATION
Setting [4] is: Test System: AMES SALMONELLA TYPHIMURIUM, Strain/Indicator: TA100, Metabolic Activation: NONE, Method: PREINCUBATION
The mark [5] stands for this setting: Test System: AMES SALMONELLA TYPHIMURIUM, Strain/Indicator: TA1535, Metabolic Activation: NONE, Method: PREINCUBATION

As to `CC(=O)[O-].CC(=O)[O-].[Hg+2]`, the mutagenic call runs as follows: (End Point: IN VITRO MICRONUCLEUS, Test System: CHL/IU CELLS, Metabolic Activation: NONE) “active; positive”; (Test System: CHINESE HAMSTER OVARY, Strain/Indicator: AS52/6-THIOGUANINE, Metabolic Activation: NONE) “active; positive”; (Test System: CHINESE HAMSTER OVARY, Strain/Indicator: CHO-AS52/6-THIOGUANINE, Metabolic Activation: NONE) “active; positive”.

Turning to `S=C(NC1CCCCC1)NC1CCCCC1`, the mutagenic call runs as follows: (Test System: AMES SALMONELLA TYPHIMURIUM, Strain/Indicator: TA97, Metabolic Activation: HAMSTER, LIVER, S-9, AROCLOR 1254 (10 OR 30%), Method: PREINCUBATION) “inactive; negative”; under setting [1], “inactive; negative”; under setting [2], “inactive; negative”; (Test System: AMES SALMONELLA TYPHIMURIUM, Strain/Indicator: TA97, Metabolic Activation: RAT, LIVER, S-9, AROCLOR 1254 (30%), Method: PREINCUBATION) “inactive; negative”; (Test System: AMES SALMONELLA TYPHIMURIUM, Strain/Indicator: TA98, Metabolic Activation: HAMSTER, LIVER, S-9, AROCLOR 1254 (10 OR 30%), Method: PREINCUBATION) “inactive; negative”; under setting [3], “inactive; negative”. Further, the mutagenic call (Test System: AMES SALMONELLA TYPHIMURIUM, Strain/Indicator: TA98, Metabolic Activation: RAT, LIVER, S-9, AROCLOR 1254 (10 OR 30%), Method: PREINCUBATION) is “inactive; negative”; the mutagenic call (Test System: AMES SALMONELLA TYPHIMURIUM, Strain/Indicator: TA100, Metabolic Activation: HAMSTER, LIVER, S-9, AROCLOR 1254 (10 OR 30%), Method: PREINCUBATION) was “inactive; negative”; the mutagenic call under setting [4] is “inactive; negative”; the mutagenic call (Test System: AMES SALMONELLA TYPHIMURIUM, Strain/Indicator: TA100, Metabolic Activation: RAT, LIVER, S-9, AROCLOR 1254 (10 OR 30%), Method: PREINCUBATION) was “inactive; negative”; the mutagenic call (Test System: AMES SALMONELLA TYPHIMURIUM, Strain/Indicator: TA1535, Metabolic Activation: HAMSTER, LIVER, S-9, AROCLOR 1254 (10 OR 30%), Method: PREINCUBATION) is “inactive; negative”; the mutagenic call under setting [5] was “inactive; negative”. Moreover, the mutagenic call was “inactive; negative” (Test System: AMES SALMONELLA TYPHIMURIUM, Strain/Indicator: TA1535, Metabolic Activation: RAT, LIVER, S-9, AROCLOR 1254 (10 OR 30%), Method: PREINCUBATION); “inactive; negative” (Test System: AMES SALMONELLA TYPHIMURIUM, Strain/Indicator: TA1537, Metabolic Activation: HAMSTER, LIVER, S-9, AROCLOR 1254 (10%), Method: PREINCUBATION); “inactive; negative” (Test System: E. COLI, Strain/Indicator: WP2 UVRA, Metabolic Activation: HAMSTER, LIVER, S-9, AROCLOR 1254, Method: STANDARD PLATE); “inactive; negative” (Test System: E. COLI, Strain/Indicator: WP2 UVRA, Metabolic Activation: HAMSTER, LIVER, S-9, Method: STANDARD PLATE); “inactive; negative” (Test System: E. COLI, Strain/Indicator: WP2 UVRA, Metabolic Activation: MOUSE, LIVER, S-9, AROCLOR 1254, Method: STANDARD PLATE); “inactive; negative” (Test System: E. COLI, Strain/Indicator: WP2 UVRA, Metabolic Activation: MOUSE, LIVER, S-9, Method: STANDARD PLATE). Also, the mutagenic call is “inactive; negative” (Test System: E. COLI, Strain/Indicator: WP2 UVRA, Metabolic Activation: NONE, Method: STANDARD PLATE); “inactive; negative” (Test System: E. COLI, Strain/Indicator: WP2 UVRA, Metabolic Activation: RAT, LIVER, S-9, AROCLOR 1254, Method: STANDARD PLATE); “inactive; negative” (Test System: E. COLI, Strain/Indicator: WP2 UVRA, Metabolic Activation: RAT, LIVER, S-9, Method: STANDARD PLATE); “inactive; negative” (Test System: MOUSE LYMPHOMA, Strain/Indicator: L5178Y (TK+/TK-), Metabolic Activation: RAT, LIVER, S-9, AROCLOR 1254, Method: SUSPENSION/PLATE).

For the compound `COc1ccc2c3c(cccc13)C(=O)N(C)C2=O`, the mutagenic call reads like this: under setting [3], “inactive; negative”; (Test System: AMES SALMONELLA TYPHIMURIUM, Strain/Indicator: TA98, Metabolic Activation: S-9, Method: PREINCUBATION) “inactive; negative”; under setting [4], “inactive; negative”; (Test System: AMES SALMONELLA TYPHIMURIUM, Strain/Indicator: TA100, Metabolic Activation: S-9, Method: PREINCUBATION) “inactive; negative”.

As for `CC(C)N1C(=O)c2ccccc2NS1(=O)=O`, the mutagenic call is, setting by setting: (Test System: AMES SALMONELLA TYPHIMURIUM, Strain/Indicator: TA97, Metabolic Activation: NONE, Method: STANDARD PLATE) “inactive; negative”; (Test System: AMES SALMONELLA TYPHIMURIUM, Strain/Indicator: TA97, Metabolic Activation: RAT, LIVER, S-9, DELOR 103, Method: STANDARD PLATE) “inactive; negative”; (Test System: AMES SALMONELLA TYPHIMURIUM, Strain/Indicator: TA98, Metabolic Activation: NONE, Method: STANDARD PLATE) “inactive; negative”; (Test System: AMES SALMONELLA TYPHIMURIUM, Strain/Indicator: TA98, Metabolic Activation: RAT, LIVER, S-9, DELOR 103, Method: STANDARD PLATE) “inactive; negative”; (Test System: AMES SALMONELLA TYPHIMURIUM, Strain/Indicator: TA100, Metabolic Activation: NONE, Method: STANDARD PLATE) “inactive; negative”; (Test System: AMES SALMONELLA TYPHIMURIUM, Strain/Indicator: TA100, Metabolic Activation: RAT, LIVER, S-9, DELOR 103, Method: STANDARD PLATE) “inactive; negative”. Also, the mutagenic call (Test System: AMES SALMONELLA TYPHIMURIUM, Strain/Indicator: TA1535, Metabolic Activation: NONE, Method: STANDARD PLATE) was “inactive; negative”; the mutagenic call (Test System: AMES SALMONELLA TYPHIMURIUM, Strain/Indicator: TA1535, Metabolic Activation: RAT, LIVER, S-9, DELOR 103, Method: STANDARD PLATE) is “inactive; negative”; the mutagenic call (Test System: AMES SALMONELLA TYPHIMURIUM, Strain/Indicator: TA1538, Metabolic Activation: NONE, Method: STANDARD PLATE) is “inactive; negative”; the mutagenic call (Test System: AMES SALMONELLA TYPHIMURIUM, Strain/Indicator: TA1538, Metabolic Activation: RAT, LIVER, S-9, DELOR 103, Method: STANDARD PLATE) was “inactive; negative”.

On to `O=c1c2c(O)cccc2oc2c3c(cc(O)c12)O[C@H]1OC=C[C@@H]31`, for which the mutagenic call was “inactive; negative” (Test System: AMES SALMONELLA TYPHIMURIUM, Strain/Indicator: TA98, Metabolic Activation: RAT, LIVER, S-9, PHENOBARBITAL, Method: STANDARD PLATE) and “active; positive” (Test System: AMES SALMONELLA TYPHIMURIUM, Strain/Indicator: TA100, Metabolic Activation: RAT, LIVER, S-9, PHENOBARBITAL, Method: STANDARD PLATE).

Regarding `CCCCCN(CCCC)N=O`, the mutagenic call (Test System: AMES SALMONELLA TYPHIMURIUM, Strain/Indicator: TA100, Metabolic Activation: RAT, LIVER, S-9, KC500 OR PHENOBARBITAL, Method: LIQUID SUSPENSION) was “active; positive”.

`OCCCBr`: the mutagenic call is “inactive; negative” (Test System: AMES SALMONELLA TYPHIMURIUM, Strain/Indicator: TA97, Metabolic Activation: HAMSTER, LIVER, S-9, AROCLOR 1254 (10%), Method: PREINCUBATION); “inactive; negative” under setting [1]; “inactive; negative” under setting [2]; “inactive; negative” (Test System: AMES SALMONELLA TYPHIMURIUM, Strain/Indicator: TA98, Metabolic Activation: HAMSTER, LIVER, S-9, AROCLOR 1254 (10%), Method: PREINCUBATION); “inactive; negative” under setting [3]; “inactive; negative” (Test System: AMES SALMONELLA TYPHIMURIUM, Strain/Indicator: TA98, Metabolic Activation: RAT, LIVER, S-9, AROCLOR 1254 (10%), Method: PREINCUBATION). For the same compound, the mutagenic call reads like this: (Test System: AMES SALMONELLA TYPHIMURIUM, Strain/Indicator: TA100, Metabolic Activation: HAMSTER, LIVER, S-9, AROCLOR 1254 (10%), Method: PREINCUBATION) “active; positive”; under setting [4], “active; positive”; (Test System: AMES SALMONELLA TYPHIMURIUM, Strain/Indicator: TA100, Metabolic Activation: RAT, LIVER, S-9, AROCLOR 1254 (10%), Method: PREINCUBATION) “active; positive”; (Test System: AMES SALMONELLA TYPHIMURIUM, Strain/Indicator: TA1535, Metabolic Activation: HAMSTER, LIVER, S-9, AROCLOR 1254 (10%), Method: PREINCUBATION) “active; positive”; under setting [5], “active; positive”; (Test System: AMES SALMONELLA TYPHIMURIUM, Strain/Indicator: TA1535, Metabolic Activation: RAT, LIVER, S-9, AROCLOR 1254 (10%), Method: PREINCUBATION) “active; positive”.

The record behind these values is PubChem BioAssay AID1259407 (Chemical Carcinogenesis Research Information System (CCRIS), 2018).
